In patent US20250059141A1, “TLR MODULATOR AND USE THEREOF” (DUALITY BIOLOGICS (SUZHOU) CO., LTD., priority 2021, published 2025):
Like-named read-outs stand apart in the source and are kept apart here.

Key:
[1] = biological target: T1, hTLR8 (human Toll-like receptor 8) (Homo sapiens, UniProt Q9NR97); assay: HEK-Blue hTLR8 reporter assay (QUANTI-Blue, OD650); type: cell-based; details: HEK-Blue hTLR8 cells, 24 h, read-out: Reporter assay TLR8 EC50
T1 construct: host or cells: HEK-Blue hTLR8 (HEK293-derived reporter cells)
T1 sequence (Q9NR97 27-1041): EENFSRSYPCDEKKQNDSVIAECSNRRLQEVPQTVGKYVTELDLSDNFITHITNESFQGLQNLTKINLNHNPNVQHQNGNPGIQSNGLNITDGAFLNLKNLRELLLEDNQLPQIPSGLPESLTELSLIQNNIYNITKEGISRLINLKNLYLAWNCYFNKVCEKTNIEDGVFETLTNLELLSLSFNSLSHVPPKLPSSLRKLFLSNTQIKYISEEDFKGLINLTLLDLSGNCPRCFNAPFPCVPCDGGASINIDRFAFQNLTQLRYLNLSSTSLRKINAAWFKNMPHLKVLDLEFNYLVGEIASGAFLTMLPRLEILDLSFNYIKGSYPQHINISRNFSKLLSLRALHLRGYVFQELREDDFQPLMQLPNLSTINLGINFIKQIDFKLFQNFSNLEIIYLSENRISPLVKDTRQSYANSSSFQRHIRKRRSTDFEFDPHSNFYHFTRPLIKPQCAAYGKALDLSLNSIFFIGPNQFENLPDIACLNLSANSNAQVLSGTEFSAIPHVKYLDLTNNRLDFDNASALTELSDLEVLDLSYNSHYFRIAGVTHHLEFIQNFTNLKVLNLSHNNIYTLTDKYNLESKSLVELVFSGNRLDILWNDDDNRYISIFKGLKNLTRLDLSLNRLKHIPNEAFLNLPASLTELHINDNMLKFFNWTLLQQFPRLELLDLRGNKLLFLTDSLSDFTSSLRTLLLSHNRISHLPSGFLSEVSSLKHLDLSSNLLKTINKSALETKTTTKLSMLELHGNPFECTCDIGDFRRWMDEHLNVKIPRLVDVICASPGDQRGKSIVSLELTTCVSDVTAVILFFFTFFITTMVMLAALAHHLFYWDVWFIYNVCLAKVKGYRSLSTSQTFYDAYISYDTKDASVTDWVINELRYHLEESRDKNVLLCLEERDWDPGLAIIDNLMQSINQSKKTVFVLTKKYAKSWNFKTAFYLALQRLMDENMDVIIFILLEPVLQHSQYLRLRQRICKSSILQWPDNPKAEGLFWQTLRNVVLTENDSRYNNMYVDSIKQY
Protocol: In this example, the agonistic activity of the compounds of the present application on hTLR7 (human Toll-like receptor 7) and hTLR8 (human Toll-like receptor 8) was assessed; the induction activity of the compounds on human PBMCs for TNF-α and IFN-α production was assessed in human PBMCs (human peripheral blood mononuclear cells).
All compounds were formulated in DMSO into 30 mM stock solutions and preserved at 4° C. The reference compound ([…], Cat. No. tlrl-r848-5) was purchased from InvivoGen and formulated into a 5 mg/mL stock solution in DMSO and preserved in a freezer at −20° C. HEK-Blue hTLR7 and HEK-Blue hTLR8 cell lines were purchased from InvivoGen, and human PBMCs were purchased from Shanghai Saily Biotechnology Co., Ltd. (Cat. No. XFB—HP100B).
The major instruments used in this study were multifunctional microplate reader Flexstation III (Molecular Device), Envision (Perkin Elmer), M2e (Molecular Device), and Echo555 (Labcyte). 2.1 Agonistic activity of compounds on hTLR7 (human Toll-like receptor 7) and hTLR8 (human Toll-like receptor 8)
Compound dilution: The compounds of the present application are diluted in DMSO, for example, to about 15 mM. The reference compound was added to the plates in sequence after dilution. The compounds were serially 3-fold diluted to 10 concentrations and added to 96-well plates in duplicate.
For the negative control wells, DMSO was added at 0.2 μL/well, and the reference compound was added to the positive control wells. The final concentration of DMSO was 0.2%.
Cell plating: When an 80% confluence of HEK Blue hTLR7&8 cells in the culture flask was observed under a microscope, the culture medium was discarded, 10 mL of detection medium was added, and the cells were separated by pipetting. The cells were counted on a cytometer and diluted to 500,000 cells/mL. The cells were plated at 100 μL/50,000 cells/well in the 96-well plates containing the compounds. The compounds and cells were co-incubated at 37° C. in a 5% CO2 incubator for 24 hours.
Compound activity detection: 20 μL of cell supernatant was taken from each well and added to a plate containing QUANTI-Blue™ reagent at 180 μL/well. The plate was incubated at 37° C. for 1 hour, and the absorbance at 650 nm (OD650) was measured on the multifunctional microplate reader Flexstation III.
Compound activity data analysis: The OD650 values were analyzed by GraphPad Prism software and fitted to give dose-response curves of the compounds. The EC50 values of compounds were calculated.

[2] = tested on: TNF-α production in human PBMCs; assay: Induction of TNF-α in human PBMCs (ELISA); type: cell-based; details: PBMC, 24 h, read-out: PBMC assay TNFa EC50
Protocol: In this example, the induction activity of the compounds of the present application on human PBMCs for TNF-α and IFN-α production was assessed in human PBMCs (human peripheral blood mononuclear cells). The human PBMCs were purchased from Shanghai Saily Biotechnology Co., Ltd. (Cat. No. XFB—HP100B). PBMC cells were treated with the compounds. The compounds of the present application are diluted in DMSO, for example, to about 15 mM. The reference compound was added to the plates in sequence after diluted to 5 mg/mL. The compounds were serially 3- or 4-fold diluted to 8 concentrations and added to plates in duplicate (Table 2-1 for serial 3-fold dilutions and Table 2-2 for serial 4-fold dilutions). For the negative control wells, DMSO was added at 0.4 μL/well, and a 5 mg/mL reference compound solution was added to the positive control wells at 0.4 μL/well. The final concentration of DMSO was 0.2%. Frozen human PBMCs in cryopreservation tubes were quickly thawed in a 37° C. water bath and transferred into 50-mL centrifuge tubes. Prewarmed RPMI1640 medium was gradually added and the mixture was well mixed and centrifuged for 15 min before the supernatant was discarded. The cells were resuspended in a culture medium and counted. The cell suspension was adjusted to 2.5×10^6 cells/mL with the culture medium. Diluted cells were added at 200 μL/500,000 cells/well in 96-well plates containing the compounds. The cell plates were incubated at 37° C./5% CO2 for 24 h.
The plate was then washed thrice. […] Termination of reaction: The reaction was terminated by quickly adding the stop solution at 100 μL/well. Plate reading: The reading at wavelength 450 nm was detected by an M2e instrument within 10 min after the termination.
Compound activity data analysis: The OD450 values were converted to TNF-α and IFN-α contents by GraphPad Prism software analysis and fitted to give dose-response curves of the compounds. The EC50 values for the compounds were calculated, where the Emax values are the maximal values for TNF-α and IFN-α.

[3] = serial 4-fold dilutions, class symbols

SMILES	EC50 [1] [nM]	EC50 ([1]; class symbols) [nM]	EC50 ([2]; serial 3-fold dilutions) [nM]	EC50 [2, 3] [nM]
CCCN(OCc1ccc(N)cc1)C(=O)C1=Cc2ccc(-c3cncc(CO)c3)cc2N=C(N)C1 [Compound 15]	< 1.5	–	3	–
CCCN(OCc1ccc(N)cc1)C(=O)C1=Cc2ccc(-c3cncc(C(=O)O)c3)cc2N=C(N)C1 [Compound 32]	–	10 to 100	–	10 to 50
CCCN(OCc1ccc(N)cc1)C(=O)C1=Cc2ccc(-c3cccc(S(N)(=O)=O)c3)cc2N=C(N)C1 [Compound 35]	< 1.5	–	5	–
CCCN(OCc1ccc(N)cc1)C(=O)C1=Cc2ccc(-c3cncc(S(N)(=O)=O)c3)cc2N=C(N)C1 [Compound 36]	1.71	–	12.2	–
CCCN(OCc1ccc(N)cc1)C(=O)C1=Cc2ccc(C(=O)N3CC(CO)C3)cc2N=C(N)C1 [Compound 37]	–	10 to 100	–	10 to 50
CCCN(OCc1ccc(N)cc1)C(=O)C1=Cc2ccc(C(=O)Nc3cccnc3)cc2N=C(N)C1 [Compound 40]	2.5	–	9.08	–
CCCN(OCc1ccc(N)cc1)C(=O)C1=Cc2ccc(-c3cccc(S(=O)(=O)N4CC(O)C4)c3)cc2N=C(N)C1 [Compound 41]	5.37	–	15.3	≤ 10
CCCN(OCc1ccc(N)cc1)C(=O)C1=Cc2ccc(-c3ccc(C(=O)N4CC[C@@H](O)C4)cc3)cc2N=C(N)C1 [Compound 42]	–	10 to 100	37	10 to 50
CCCN(OCc1ccc(N)cc1)C(=O)C1=Cc2ccc(-c3ccc4c(c3)C(=O)OC4)cc2N=C(N)C1 [Compound 43]	< 1.5	–	8.04	–
NC1=Nc2cc(-c3cncc(CO)c3)ccc2C=C(C(=O)N(CC2CC2)OCc2ccc(N)cc2)C1 [Compound 45]	2.3	–	7.33	–
CCCN(OCc1ccc(N)cc1)C(=O)C1=Cc2ccc(C(=O)N3CCC(O)C3)cc2N=C(N)C1 (stereo not shown) [Compound 46]	–	10 to 100	–	10 to 50
CCCN(OCc1ccc(N)cc1)C(=O)C1=Cc2ccc(C(=O)N3CCOC(CO)C3)cc2N=C(N)C1 (stereo not shown) [Compound 47]	–	10 to 100	–	10 to 50
CCCN(OCc1ccc(N)cc1)C(=O)C1=Cc2ccc(C(=O)NCCO)cc2N=C(N)C1 [Compound 48]	–	10 to 100	–	10 to 50
CCCN(OCc1ccc(N)cc1)C(=O)C1=Cc2ccc(-c3cncc(Cl)c3)cc2N=C(N)C1 [Compound 49]	6.6	–	26.1	–
CCCN(OCc1ccc(N)cc1)C(=O)C1=Cc2ccc(-c3cncc(C#N)c3)cc2N=C(N)C1 [Compound 50]	1.5	–	7.7	–
CCCN(OCc1ccc(N)cc1)C(=O)C1=Cc2ccc(-c3ccc(C#N)nc3)cc2N=C(N)C1 [Compound 51]	5.6	–	17.3	–

More lines, main results first:

EC50 [1] [nM]	EC50 ([1]; class symbols) [nM]	SMILES	EC50 ([2]; serial 3-fold dilutions) [nM]	EC50 [2, 3] [nM]
4.4	–	CCCN(OCc1ccc(N)cc1)C(=O)C1=Cc2ccc(-c3cncc(N)c3)cc2N=C(N)C1 [Compound 52]	8.61	–
–	10 to 100	CCCN(OCc1ccc(N)cc1)C(=O)C1=Cc2ccc(-c3cncc(C(F)(F)F)c3)cc2N=C(N)C1 [Compound 53]	–	10 to 50
< 1.5	–	CCCN(OCc1ccc(N)cc1)C(=O)C1=Cc2ccc(-c3cncc(CN)c3)cc2N=C(N)C1 [Compound 54]	3.98	–
2.3	–	CCCN(OCc1ccc(N)cc1)C(=O)C1=Cc2ccc(-c3ccc(N4CCOCC4)nc3)cc2N=C(N)C1 [Compound 55]	33.5	–
< 1.5	–	CCCN(OCc1ccc(N)cc1)C(=O)C1=Cc2ccc(-c3cncc(S(C)(=O)=O)c3)cc2N=C(N)C1 [Compound 56]	7.35	–
–	≤ 10	NC1=Nc2cc(-c3cncc(CO)c3)ccc2C=C(C(=O)N(CCC(F)(F)F)OCc2ccc(N)cc2)C1 [Compound 58]	–	≤ 10
–	≤ 10	CCCN(OCc1ccc(N)cc1Cl)C(=O)C1=Cc2ncc(-c3cncc(CO)c3)cc2N=C(N)C1 [Compound 59]	–	≤ 10
–	≤ 10	CCCN(OCc1ccc(N)cc1OC)C(=O)C1=Cc2ncc(-c3cncc(CO)c3)cc2N=C(N)C1 [Compound 60]	–	≤ 10
–	≤ 10	CCCN(OCc1ccc(N)cc1)C(=O)C1=Cc2ncc(-c3cncc(CO)c3)cc2N=C(N)C1 [Compound 61]	–	≤ 10
–	≤ 10	CCCN(OCc1ccc(N)cc1)C(=O)C1=Cc2ccc(-c3cncc(CO)c3)nc2N=C(N)C1 [Compound 62]	–	≤ 10
–	≤ 10	CCCN(OCc1ccc(N)cc1)C(=O)C1=Cc2ccc(-c3cnc4c(c3)C(=O)OC4)nc2N=C(N)C1 [Compound 63]	–	≤ 10
–	≤ 10	CCCN(OCc1ccc(N)cc1)C(=O)C1=Cc2ccc(-c3cccc(S(=O)(=O)NCCO)c3)cc2N=C(N)C1 [Compound 64]	–	≤ 10
–	≤ 10	CCCN(OCc1ccc(N)cc1)C(=O)C1=Cc2ccc(-c3cccc(S(=O)(=O)N4CCC(O)CC4)c3)cc2N=C(N)C1 [Compound 66]	–	≤ 10
–	≤ 10	CCCN(OCc1ccc(N)cc1)C(=O)C1=Cc2ccc(-c3cccc(S(=O)(=O)N4CCNCC4)c3)cc2N=C(N)C1 [Compound 67]	–	≤ 10
–	≤ 10	CCCN(OCc1ccc(N)cc1)C(=O)C1=Cc2ccc(-c3cccc(S(=O)(=O)N4CCOCC4)c3)cc2N=C(N)C1 [Compound 68]	–	≤ 10
